Reference: patent US9428508B2, “2,4-diamino-6,7-dihydro-5H-pyrrolo[2,3]pyrimidine derivatives as FAK/Pyk2 inhibitors” (Centaurus BioPharma Co., Ltd., priority 2011, dated 2016)
pIC50: −log10 of the molar value.

How the values were obtained:
FAK = FAK (Homo sapiens (Human), UniProt Q05397); assay: Biochemical assay for FAK activity (LANCE TR-FRET, ULight-poly Glu,Ala,Tyr substrate); details: GST-tagged FAK, 120 min reaction
Experimental: (§1) Biochemical Assay for FAK/Pyk2 Activity
(§2) GST-tagged FAK was purchased from Invitrogen (PV3832). GST-tagged PYK2 was purchased from Invitrogen (PV4567). The activity of FAK/PYK2 was measured by monitoring the phosphorylation of a fluorophore labeled ULight-poly Glu, Ala, Tyr (1:1:1) peptide substrate from Perkin Elmer (TRF0101) in the presence of ATP. The phosphorylated tyrosine residue was recognized by a LANCE Europium chelate labeled anti-phosphotyrosine (PY20) antibody from Perkin Elmer (AD0066). This brought the fluorophore and europium chelate in close proximity ([…]) that upon excitation at 320 nm by an Envision (PerkinElmer), energy can be transferred from the donor Europium chelate to the acceptor fluorophore. […] The strength of the signal was, therefore, directly proportional to the FAK/PYK2 activity.
(§3) To measure inhibitory activity of FAK/PYK2 inhibitors, compounds were first prepare as a 1 mM stock in 100% DMSO and 3-fold serial dilution was performed in a 96-well plate (Corning, 3897) to generate 12 different concentration of 100× stock. A 5 μl of 100× stock of each concentration was added to wells containing 95 μl of 1× reaction buffer (40 mM Tris, pH7.5, […], 1 mM DTT and 1 mM CHAPS) to generate 5× stock. Then 2 μl of 5× stock of each concentration was added to a 384 wells-OptiPlate (PerkinElmer, 6007299).
(§4) For FAK, 4 μl of 2.5 nM FAK, 1 ul of 8 μg/μl BSA and 1.5 μl of 666 nM ULight-poly Glu, Ala, Tyr (1:1:1) peptide substrate, prepared in above reaction buffer, were added to each well. The reaction was initiated by adding 1.5 μl of 33.3 μM ATP. The reaction was allowed to proceed for 120 min before being quenched with 5 μl of 40 mM EDTA stop buffer prepared in 1×LANCE detection buffer (PerkinElmer, CR97-100).
(§5) Upon quenching of the reaction, 5 μl of 8 nM anti-phosphotyrosine antibody was added to each well and incubated for 60 minutes. The plate was measured using an Envision (PerkinElmer) based on the theory mentioned above.

PYK2 = PYK2 (Homo sapiens (Human), UniProt Q14289); assay: Biochemical assay for PYK2 activity (LANCE TR-FRET, ULight-poly Glu,Ala,Tyr substrate); details: GST-tagged PYK2, 40 min reaction
Chain of PYK2 (Q14289 whole entry): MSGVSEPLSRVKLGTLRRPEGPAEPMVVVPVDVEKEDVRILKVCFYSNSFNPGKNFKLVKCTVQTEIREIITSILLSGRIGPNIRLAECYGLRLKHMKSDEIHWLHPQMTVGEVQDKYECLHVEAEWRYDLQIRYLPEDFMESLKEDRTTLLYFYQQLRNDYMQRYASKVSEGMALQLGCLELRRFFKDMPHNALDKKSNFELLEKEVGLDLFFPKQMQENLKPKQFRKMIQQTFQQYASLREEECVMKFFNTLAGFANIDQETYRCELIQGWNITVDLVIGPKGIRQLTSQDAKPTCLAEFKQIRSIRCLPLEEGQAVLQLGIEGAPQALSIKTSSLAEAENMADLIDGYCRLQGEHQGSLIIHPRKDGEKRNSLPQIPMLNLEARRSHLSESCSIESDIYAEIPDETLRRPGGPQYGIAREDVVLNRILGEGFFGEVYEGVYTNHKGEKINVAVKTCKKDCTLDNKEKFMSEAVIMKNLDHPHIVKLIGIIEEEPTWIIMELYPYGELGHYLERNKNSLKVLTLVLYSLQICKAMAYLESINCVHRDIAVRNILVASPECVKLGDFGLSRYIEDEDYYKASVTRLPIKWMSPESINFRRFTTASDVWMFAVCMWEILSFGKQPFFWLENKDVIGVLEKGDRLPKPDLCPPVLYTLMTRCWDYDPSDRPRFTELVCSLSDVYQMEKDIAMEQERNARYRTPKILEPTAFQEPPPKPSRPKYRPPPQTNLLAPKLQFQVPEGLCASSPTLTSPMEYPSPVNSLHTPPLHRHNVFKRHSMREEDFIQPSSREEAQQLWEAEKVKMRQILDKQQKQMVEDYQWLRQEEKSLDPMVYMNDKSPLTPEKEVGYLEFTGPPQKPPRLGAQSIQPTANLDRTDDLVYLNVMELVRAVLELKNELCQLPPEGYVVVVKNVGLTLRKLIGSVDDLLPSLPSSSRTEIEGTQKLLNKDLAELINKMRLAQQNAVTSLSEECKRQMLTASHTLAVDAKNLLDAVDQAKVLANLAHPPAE
Experimental: as §1, §2, §3
as §4, with “PYK2, 5” for “FAK, 4”, “2” for “2.5”, “PYK2” for “FAK, 1 ul of 8 μg/μl BSA”, “46.6” for “33.3”, “40” for “120”
as §5

Chain of FAK (Q05397 whole entry): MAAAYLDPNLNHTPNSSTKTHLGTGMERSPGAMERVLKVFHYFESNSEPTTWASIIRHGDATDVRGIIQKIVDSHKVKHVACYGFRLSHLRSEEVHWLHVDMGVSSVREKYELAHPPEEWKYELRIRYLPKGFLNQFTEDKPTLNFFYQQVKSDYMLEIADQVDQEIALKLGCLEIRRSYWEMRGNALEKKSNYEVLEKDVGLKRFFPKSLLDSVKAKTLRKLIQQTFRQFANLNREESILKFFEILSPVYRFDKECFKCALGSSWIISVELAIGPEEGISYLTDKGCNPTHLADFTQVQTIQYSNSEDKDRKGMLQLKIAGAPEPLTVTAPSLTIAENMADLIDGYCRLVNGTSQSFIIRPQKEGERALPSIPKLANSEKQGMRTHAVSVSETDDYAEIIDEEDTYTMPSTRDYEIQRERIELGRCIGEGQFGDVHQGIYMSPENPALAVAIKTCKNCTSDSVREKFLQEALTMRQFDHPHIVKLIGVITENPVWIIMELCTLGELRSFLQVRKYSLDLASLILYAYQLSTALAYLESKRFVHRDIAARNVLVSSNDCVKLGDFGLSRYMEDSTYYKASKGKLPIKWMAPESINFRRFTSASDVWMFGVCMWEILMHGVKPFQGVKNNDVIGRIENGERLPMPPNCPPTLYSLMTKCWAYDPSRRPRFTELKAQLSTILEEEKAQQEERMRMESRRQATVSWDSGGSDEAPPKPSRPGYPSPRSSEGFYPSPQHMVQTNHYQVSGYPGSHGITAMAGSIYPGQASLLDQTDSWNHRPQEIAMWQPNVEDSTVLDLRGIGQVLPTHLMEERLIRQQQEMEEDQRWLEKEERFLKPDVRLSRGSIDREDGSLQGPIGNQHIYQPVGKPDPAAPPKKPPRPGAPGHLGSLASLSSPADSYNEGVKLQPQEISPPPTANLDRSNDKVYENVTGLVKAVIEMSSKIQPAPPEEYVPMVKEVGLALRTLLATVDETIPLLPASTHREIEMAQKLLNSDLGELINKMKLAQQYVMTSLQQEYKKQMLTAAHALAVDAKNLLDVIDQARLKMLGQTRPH

Row | SMILES | pIC50 (FAK) | pIC50 (PYK2)
1 | COc1cc(N2CCOCC2)ccc1Nc1nc2c(c(Nc3ccccc3S(=O)(=O)NCCN(C)C)n1)CCN2 [Example 49, N-(2-(dimethylamino)ethyl)-2-(2-(2-methoxy-4-morpholinophenylamino)-6,7-dihydro-5H-pyrrolo[2,3-d]pyrimidin-4-ylamino)benzenesulfonamide] | > 6.30 | > 6.30
2 | COCCNS(=O)(=O)c1ccccc1Nc1nc(Nc2ccc(N3CCOCC3)cc2OC)nc2c1CCN2 [Example 50, 2-(2-(2-methoxy-4-morpholinophenylamino)-6,7-dihydro-5H-pyrrolo[2,3-d]pyrimidin-4-ylamino)-N-(2-methoxyethyl)benzenesulfonamide] | > 7.30 | > 7.30
3 | COc1cc(N2CCOCC2)ccc1Nc1nc2c(c(Nc3ccccc3S(=O)(=O)Nc3ccccc3)n1)CCN2 [Example 51, 2-(2-(2-methoxy-4-morpholinophenylamino)-6,7-dihydro-5H-pyrrolo[2,3-d]pyrimidin-4-ylamino)-N-phenylbenzenesulfonamide] | > 6.70 | > 6.30
4 | CC(C)NS(=O)(=O)c1ccccc1Nc1nc(Nc2ccc(N3CCOCC3)cc2)nc2c1CCN2 [Example 52, N-isopropyl-2-(2-(4-morpholinophenylamino)-6,7-dihydro-5H-pyrrolo[2,3-d]pyrimidin-4-ylamino)benzenesulfonamide] | > 7.70 | > 7.70
5 | CNC(=O)c1ccc(Nc2nc3c(c(Nc4ccccc4S(=O)(=O)NC(C)C)n2)CCN3)cc1 [Example 53, 4-(4-(2-(N-isopropylsulfamoyl)phenylamino)-6,7-dihydro-5H-pyrrolo[2,3-d]pyrimidin-2-ylamino)-N-methylbenzamide] | > 7.70 | > 7.70
6 | CC(C)NS(=O)(=O)c1ccccc1Nc1nc(Nc2ccc(CO)cc2)nc2c1CCN2 [Example 54, 2-(2-(4-(hydroxymethyl)phenylamino)-6,7-dihydro-5H-pyrrolo[2,3-d]pyrimidin-4-ylamino)-N-isopropylbenzenesulfonamide] | > 7.70 | > 7.70
7 | CC(C)NS(=O)(=O)c1ccccc1Nc1nc(Nc2ccc(N3CCOCC3)cc2F)nc2c1CCN2 [Example 55, 2-(2-(2-fluoro-4-morpholinophenylamino)-6,7-dihydro-5H-pyrrolo[2,3-d]pyrimidin-4-ylamino)-N-isopropylbenzenesulfonamide] | > 7.70 | > 7.70
8 | COc1nc(N2CCOCC2)ccc1Nc1nc2c(c(Nc3ccccc3S(=O)(=O)NC(C)C)n1)CCN2 [Example 56, N-isopropyl-2-(2-(2-methoxy-6-morpholino-3-ylamino)-6,7-dihydro-5H-pyrrolo[2,3-d]pyrimidin-4-ylamino)benzenesulfonamide] | > 7.70 | > 7.30
9 | CC(C)NS(=O)(=O)c1ccccc1Nc1nc(Nc2ccc(N3CCOCC3)nc2)nc2c1CCN2 [Example 57, N-isopropyl-2-(2-(6-morpholinopyridin-3-ylamino)-6,7-dihydro-5H-pyrrolo[2,3-d]pyrimidin-4-ylamino)benzenesulfonamide] | > 7.70 | > 7.70
10 | CC(C)NS(=O)(=O)c1ccccc1Nc1nc(Nc2ccc(N3CCOCC3)cn2)nc2c1CCN2 [Example 58, N-isopropyl-2-(2-(5-morpholinopyridin-2-ylamino)-6,7-dihydro-5H-pyrrolo[2,3-d]pyrimidin-4-ylamino)benzenesulfonamide] | > 7.70 | > 7.30
11 | CC(C)NS(=O)(=O)c1ccccc1Nc1nc(Nc2ccc(N3CCOCC3)cc2C(F)(F)F)nc2c1CCN2 [Example 60, N-isopropyl-2-(2-(4-morpholino-2-(trifluoromethyl)phenylamino)-6,7-dihydro-5H-pyrrolo[2,3-d]pyrimidin-4-ylamino)benzenesulfonamide] | > 6.30 | < 6.00
12 | CC(C)NS(=O)(=O)c1ccccc1Nc1nc(Nc2ccc(C(F)(F)F)cc2)nc2c1CCN2 [Example 61, N-isopropyl-2-(2-(4-(trifluoromethyl)phenylamino)-6,7-dihydro-5H-pyrrolo[2,3-d]pyrimidin-4-ylamino)benzenesulfonamide] | > 6.00 | > 6.30
